In US8524699B2, “Substituted dihydropyrazolones and use thereof as HIF-prolyl-4-hydroxylase inhibitors” (Bayer Intellectual Property GmbH, priority 2006, dated 2013) one finds IC50 data, which are given here for eleven compounds.

In the assay the target is HIF prolyl hydroxylase. The assay can be described thus: Inhibition of the activity of HIF prolyl hydroxylase (VBC complex binding to hydroxylated peptide substrate). The assay is classed as biochemical. To be noted: cell lysate containing prolyl hydroxylase. Here is the method: Hydroxylated HIF bonds specifically to the von Hippel-Lindau protein-elongin B-elongin C complex (VBC complex). This interaction occurs only if HIF is hydroxylated on a conserved prolyl radical. It is the basis for the biochemical determination of HIF prolyl hydroxylase activity. The test is carried out as described [Oehme F., Jonghaus W., Narouz-Ott L., Huetter J., Flamme I., Anal. Biochem. 330 (1), 74-80 (2004)]:
A clear 96-well microtiter plate coated with NeutrAvidin HBC (Pierce) is incubated with blocker casein for 30 minutes. The plate is then washed three times with 200 μl each time of wash buffer (50 mM Tris, pH 7.5, 100 mM NaCl, 10% (v/v) blocker casein, 0.05% (v/v) Tween 20) per well. The peptide biotin-DLDLEMLAPYIPMDDDFQL (Eurogentec, 4102 Seraing, Belgium) is added in a concentration of 400 nM in 100 μl wash buffer. This peptide serves as a substrate for the prolyl hydroxylation and is bonded to the microtiter plate. After incubation for 60 minutes, the plate is washed three times with wash buffer, incubated with 1 mM biotin in blocker casein for 30 minutes and then washed again three times with wash buffer.
To carry out the prolyl hydroxylase reaction, the peptide substrate bonded to the plate is incubated with a cell lysate containing prolyl hydroxylase for 1 to 60 minutes. The reaction takes place in 100 μl reaction buffer (20 mM Tris, pH 7.5, 5 mM KCl, 1.5 mM MgCl2, 1 μM-1 mM 2-oxoglutarate, 10 μM FeSO4, 2 mM ascorbate) at room temperature. The reaction mixture moreover contains various concentrations of the prolyl hydroxylase inhibitor to be tested. The test substance is preferably, but not exclusively, employed at concentrations of between 1 nM and 100 μM. The reaction is stopped by washing the plate three times with wash buffer.
For quantitative determination of the prolyl hydroxylation, a fusion protein which contains both thioredoxin from E. coli and the VBC complex in 80 μl bonding buffer (50 mM Tris, pH 7.5, 120 mM NaCl) is added. After 15 minutes, 10 μl of a solution of polyclonal anti-thioredoxin antibodies from rabbit in bonding buffer are added. After a further 30 minutes, 10 μl of a solution of anti-rabbit immunoglobulin coupled to horseradish peroxidase in bonding buffer are added. After incubation at room temperature for 30 minutes, the plate is washed three times with wash buffer in order to remove non-bonded VBC complex and antibodies. To determine the amount of bonded VBC complex, the plate is incubated with TMB for 15 minutes. The color reaction is ended by addition of 100 μl 1 M sulfuric acid. The amount of bonded VBC complex is determined by measurement of the optical density at 450 nm. It is proportional to the amount of hydroxylated proline in the peptide substrate.
Alternatively, a VBC complex coupled to europium (Perkin Elmer) can be used for detection of the prolyl hydroxylation. In this case, the amount of bonded VBC complex is determined by the fluorescence with respect to time. The use of VBC complex labeled with [^35S]-methionine is moreover possible. For this, the radioactively labeled VBC complex can be prepared by in vitro transcription-translation in reticulocyte lysate.
Representative IC50 values for the embodiment examples are reproduced in the following Table 1: […]

Where a name gives a salt, the structure may show the parent alone.

As to `O=c1c(-c2cccnc2)c[nH]n1-c1cc(N2CCOCC2)ncn1` [Example 18, 2-(6-Morpholin-4-yl-pyrimidin-4-yl)-4-pyridin-3-yl-1,2-dihydro-3H-pyrazol-3-one hydrochloride], the half-inhibitory concentration (IC50) amounted to 180 nM.
The result for `COCCN1CCN(c2cc(-n3[nH]cc(-c4cccnc4)c3=O)ncn2)CC1` [Example 28, 2-{6-[4-(2-Methoxyethyl)piperazin-1-yl]pyrimidin-4-yl}-4-pyridin-3-yl-1,2-dihydro-3H-pyrazol-3-one dihydrochloride] reads 890 nM; that for `O=c1c(-c2cccnc2)c[nH]n1-c1cnccn1` [Example 46, 2-Pyrazin-2-yl-4-pyridin-3-yl-1,2-dihydro-3H-pyrazol-3-one hydrochloride], 930 nM; that for `O=c1c(-c2cccnc2)c[nH]n1-c1ccc(-c2ccccc2)nn1` [Example 22, 2-(6-Phenylpyridazin-3-yl)-4-pyridin-3-yl-1,2-dihydro-3H-pyrazol-3-one hydrochloride], 2700 nM.
In the case of `CN(C)CCOc1cc(-n2[nH]cc(-c3cccnc3)c2=O)ncn1` [Example 26, 2-{6-[2-(Dimethylamino)ethoxy]pyrimidin-4-yl}-4-pyridin-3-yl-1,2-dihydro-3H-pyrazol-3-one hydrochloride] it was 4000 nM.
In the case of `CCN(CC)CCCCCCNc1cc(-n2[nH]cc(-c3cccnc3)c2=O)ncn1` [Example 55, 2-(6-{[6-(Diethylamino)hexyl]amino}pyrimidin-4-yl)-4-pyridin-3-yl-1,2-dihydro-3H-pyrazol-3-one] it was 1700 nM.
`N#Cc1cncc(-c2c[nH]n(-c3cc(N4CCCCC4)ncn3)c2=O)c1` [Example 44, 5-[3-oxo-2-(6-piperidin-1-ylpyrimidin-4-yl)-2,3-dihydro-1H-pyrazol-4-yl]pyridine-3-carbonitrile hydrochloride]: the IC50 amounted to 1120 nM.
In the case of `Cc1cc(C)n(-c2cc(-n3[nH]cc(-c4cccnc4)c3=O)ncn2)n1` [Example 3] it was 700 nM; in that of `O=c1c(-c2ccc(Cl)nc2)c[nH]n1-c1cc(N2CCOCC2)ncn1` [Example 16], 480 nM; in that of `O=c1c(-c2cccnc2)c[nH]n1-c1nc2ccccc2s1` [Example 6], 2800 nM.
In the case of `O=c1c(-c2cccnc2)c[nH]n1-c1nnc(-c2ccc(Cl)cc2)s1` [Example 7] it was 880 nM.
